The source of these data is ChEMBL document CHEMBL1126223, “Adenosine deaminase inhibitors. Synthesis and biological evaluation of C1' and nor-C1' derivatives of (+)-erythro-9-(2(S)-hydroxy-3(R)-nonyl)adenine” (J Med Chem, 1992).

One experiment addresses T1, Adenosine deaminase (Bos taurus, UniProt P56658).
T1 sequence (P56658 whole entry): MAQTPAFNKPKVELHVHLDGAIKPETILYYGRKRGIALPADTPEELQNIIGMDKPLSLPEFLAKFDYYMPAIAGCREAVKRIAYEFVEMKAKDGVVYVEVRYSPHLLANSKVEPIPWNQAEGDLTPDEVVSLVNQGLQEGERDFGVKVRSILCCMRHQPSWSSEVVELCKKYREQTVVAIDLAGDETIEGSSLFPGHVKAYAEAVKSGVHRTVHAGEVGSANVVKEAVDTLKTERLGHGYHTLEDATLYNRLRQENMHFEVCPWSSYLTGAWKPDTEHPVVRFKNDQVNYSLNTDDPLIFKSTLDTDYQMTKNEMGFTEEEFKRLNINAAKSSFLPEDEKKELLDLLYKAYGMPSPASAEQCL
The experiment in a line: Binding affinity (Ki) at calf intestinal adenosine deaminase.
Take `CCCCCC[C@@H]([C@@H](C)O)n1cnc2c(N)ncnc21` [EHNA]: the inhibition constant (Ki) (as a rule, a dissociation constant, usually derived from enzyme kinetics or from competition with a known ligand) is 4 nM.

For the molecule `CCCCCC[C@@H]1[C@@H](O)C[n+]2cnc(N)c3ncn1c32`, the affinity, expressed as Ki, was 1000 nM.

With `CCCCCC[C@H](CN=[N+]=[N-])n1cnc2c(N)ncnc21`, the Ki was 1300 nM.

`CCCCCC[C@H](CBr)n1cnc2c(N)ncnc21`: affinity was put at a Ki of 600 nM.

`CCCCCC[C@H](CCl)n1cnc2c(N)ncnc21` showed a Ki of 320 nM.

Another experiment deals with T1, Adenosine deaminase. The experiment in a line: Binding affinity (Ki) at calf intestinal Adenosine deaminase.
Take `CCCCCC[C@H](CO)n1cnc2c(N)ncnc21`: the affinity, expressed as Ki, was 47 nM.

With `CCCCCC[C@H](CF)n1cnc2c(N)ncnc21`, the affinity, expressed as Ki, was 1600 nM.

Consider `CCCCCC[C@H]([C@@H](O)CO)n1cnc2c(N)ncnc21`, for which the affinity, expressed as Ki, was 56 nM.

As for `CCCCCC[C@H]([C@H](C)O)n1cnc2c(N)ncnc21` [(+)-EHNA], the affinity corresponds to a Ki of 2 nM.

Molecule `CCCCCC[C@H]([C@@H]1CO1)n1cnc2c(N)ncnc21` gave an inhibition constant Ki of 890 nM.
